# Reference: US8784373B2, “Drug delivery by carbon nanotube arrays” (California Institute of Technology, priority 2010, dated 2014)
# Entries after “also recorded” stand apart in the source; their conditions may differ.
# Assays:
# [1] = Diffusion of flutax-1 from anchored CNT array; type: physicochemical
# [2] = Rubbing experiment (mechanical drug removal) with glass slide; type: physicochemical; settings: for flutax-1 removed (washed-out) by rubbing: approx. 125 μg deposited, 1 μL DI water, 500 g weight, 60 seconds
# Method: Another experiment was performed that targeted possible drug removal from CNT-fitted drug delivery platform by mechanical (e.g., rubbing) actions during its cardiovascular travel. Two types of specimens were used, a bare sheet of latex and a sheet of latex with CNTs anchored on one side. On each specimen, approximately 125 μg of flutax-1 was deposited by successively dropping small volumes of its ethanol solution and allowed to dry. Next, 1 μL of DI water followed by a microscopic 3×1×5/128-inch glass slide was put on each specimen. Finally, with a 500 g weight on top of it, the microscopic slide was moved back and forth a few millimeters at about 1 cm/sec for 60 seconds (FIG. 8). […] After the test, each of the two specimens was dropped in 2 mL of pure ethanol to see if they still had flutax-1 left on them.
# [3] = paclitaxel-eluting composite fibers, most of it over 30 days; cited from earlier work
SMILES,movement (diffusion) of flutax-1 molecules ([1]; in DI water),"movement (diffusion) of flutax-1 molecules, time scale ([1]; in agar)","flutax-1 remaining after rubbing, recovered in 2 mL pure ethanol ([2]; CNT-fitted latex sheet)",flutax-1 removed (washed-out) by rubbing ([2]; CNT-fitted latex sheet),"flutax-1 remaining after rubbing, recovered in 2 mL pure ethanol ([2]; bare latex sheet)",flutax-1 removed (washed-out) by rubbing ([2]; bare latex sheet),drug delivered from stent [3]
CC(=O)O[C@H]1C(=O)[C@@]2(C)C([C@H](OC(=O)c3ccccc3)[C@]3(O)C[C@H](OC(=O)[C@H](O)[C@@H](NC(=O)c4ccccc4)c4ccccc4)C(C)=C1C3(C)C)[C@]1(OC(C)=O)CO[C@@H]1C[C@@H]2OC(=O)[C@H](C)NC(=O)c1ccc(-c2c3ccc(=O)cc-3oc3cc(O)ccc23)c(C(=O)O)c1 (stereo partly shown) [flutax-1],did not move appreciably,in a matter of minutes,much flutax-1 still remains; also recorded: considerably more flutax-1 released,almost no,no more flutax-1 remains,significant amount; also recorded: considerably higher flutax-1 removal,–
CC(=O)O[C@H]1C(=O)[C@@]2(C)[C@H]([C@H](OC(=O)c3ccccc3)[C@]3(O)C[C@H](OC(=O)[C@H](O)[C@@H](NC(=O)c4ccccc4)c4ccccc4)C(C)=C1C3(C)C)[C@]1(OC(C)=O)CO[C@@H]1C[C@@H]2O [paclitaxel],–,–,–,–,–,–,about 40%
